Test results: publication PMC13327620, “A Deep‐Red‐Absorbing Osmium(II) Complex as a Photosensitizer for Photodynamic Therapy Inducing Immunogenic Cell Death” (Angewandte Chemie (International Ed. in English), 2026)
Read-outs that look alike come from different tables or passages of the source.

Legend:
MCA205 cells [1] = assay: Annexin V-FITC/propidium iodide (AV/PI) cell viability assay by flow cytometry; assay type: cell-based, mouse; conditions: MCA205, in the dark
From the text: Regarding the optimal dose of each drug for in vivo vaccination, we continued to follow the same standards as with CT26‐luc cells, using the concentration of each drug that results in approximately 5% of live cells as the in vivo dose. The testing method remained the same, using the AV/PI dual staining assay. Negative controls still included the untreated group (direct injection of PBS solution) and the non‐ICD inducer Cisplatin. Based on the in vitro HMGB‐1 release results, Ce6 was maintained as the positive control. For a more comprehensive comparison, we also added the platinum‐based chemotherapeutic agent Oxaliplatin as a non‐PS ICD inducer, serving as an additional positive control.
As the drug concentration increased, the cells gradually shifted to dying (Q3, Annexin V^+/PI^−) or dead (Q2, Annexin V^+/PI^+ and Q1, Annexin V^−/PI^+) state. For MCA205 cells, the concentrations corresponding to approximately 5% cell survival for each drug were 500 µM Cisplatin and 1400 µM Oxaliplatin in the dark, 5.5 µM Ce6 and 3 µM Os2 under 740 nm LED light illumination. […]
(§1) incubated for 24 h. Cells were then treat ed with the determined IC50 of complexes and irradiated or kept in the dark. Supernatants were collected 12 h post-t reatm ent, and the extracellular ATP content was measured with Adenosine 5′ -triphosphate (ATP) Bioluminescent Assay Kit (Sigma-Aldrich) according tomanufacturer ’s ins truction.
Cell viability assay f o r in vivo by flow cytometry
CT26-luc or MCA205 cells were seeded in 6-well plates at a density of 1 ×1 05 cells per well and cultured for 24 h at 37 °C with 5% CO 2. The medium was replaced by various concentrations of the compound dilutions in fresh medium.For Ce6 and Os2, after 4 h incubation in the dark, the medium w as r efr eshed and the plates wer e illuminated with a LUMOS-BIO photoreactor (Atlas Photonics), followed by an additional 20- h incubation in the dark. […]
(§2) 556419) and PI (BD Biosciences, Catalog no.51- 66211E). CT26- luc cells were analyzed by flow cytometry (Beckm an Coulter Life Sciences, CytoFLEX LX Flow Cytometer). […]

MCA205 cells [2] = assay: In vivo vaccination and rechallenge, MCA205 model; design: species or system C57BL/6 mice; conditions: vaccination with MCA205 cells pre-treated with 500 µM Cisplatin or 1400 µM Oxaliplatin (dark), 5.5 µM Ce6 or 3 µM Os2 (740 nm)
From the text: Next, we used these concentrations in the MCA205 vaccination and rechallenge model on C57BL/6 mice to test the in vivo ICD effect of Os2, following the same experimental procedure as that used for CT26‐luc cells in Figure 5A. […] Body weights remained stable across all groups throughout the study, further supporting the good in vivo biosafety of Os2.
The BALB/c female mice were randomly divided into 4 groups with each group containing 5 mice, which were named as Control group, Cisplatin group, Ce6 group and Os2 group. CT26-luc cells wer e treat ed in vitro with 600 µM Cisplatin in the dark, 6.5 µM Ce6 or 1.8 µM Os2 upon 740 nm LED light irradiation (60 min, 12.6 J cm-2) following the methods described above. Subsequently, treated CT26-luc cells (3×10^5 cells in 100 µ L sterile PBS) or 100 µ L sterile PB S were injected subcutaneously into the left flank of each mouse. One week later, mice were r echalleng ed by injection with untreated CT26- luc cells (1×10^6 cells in 100 µL sterile PBS). The mice were monitored by an in vivo imaging system (Biospace Lab, Photon Imager Optima) and the tumor volume was calculated with the following equation: tumor volume = width 2 × length × […]
In vivo vaccination study on MCA205 cells
The C57BL/6 mice were randomly divided into 5 groups with each group containing 10 mice, whi ch w ere nam ed as Control group, Cisplatin group, Oxaliplatin group, Ce6 group and Os2 group. M CA205 cells were treated in vitro with 500 µM Cisplatin o r 1400 µM Oxaliplatin in the dark, 5.5 µM Ce6 or 3 µM Os2 upon 740 nm LED light irradiation (60 min, 12.6 J cm-2) following the methods described above. Subsequently, treated MCA205 cells (3 ×10^5 cells in 100 µ L sterile PBS) or 100 µ L sterile PBS were injected subcutaneously into the left flank of each mouse. One week later, mice were rechallenged by injection with untreated MCA205 cells (1×10^6 cells in 100 µ L sterile PBS). The tumor volume was calculated with the following equation: tumor volume =

[3] = test system: mouse fibrosarcoma (MCA205) cells; assay: Resazurin cell viability assay, phototoxicity; assay type: cell-based; conditions: MCA-205, light or radiation study, 1 h, MCA205, 740 nm, 60 min, 12.60 J/cm2
Procedure: (100 U ml−1), streptomycin (100 U ml−1), and 1% L-glutamine. The murine fibrosarcom a (MCA205) cells were cultured in RPMI 1640 medium with 10% fetal bovine serum (FBS), penicillin (100 U ml−1), streptomycin (100 U ml−1), and 1% L-glutamine. All cells were incubated at 37 °C in a humidified atmosphere with 5 % CO2.
(§3) Normoxia. The in vitro viability of cells exposed to the complexes was determined using a resazurin assay. C ells were seeded in 96-well plates at densities of 4,000 cells/well for CT26, MC A205 and U-87 MG cells, and 8,000 cells/well for MRC-5 and NIH/3T3 cells. A fter 24 h of growth at 37 °C wit h 5% CO2, the medium was replaced with fresh medium containing various concentrations of the compounds . Following a 4- h incubation in the dark, the medium was refres hed , and the plates were exposed to irradiation usinga LUM OS -BIO photoreactor (At las Photonics).N on- ir rad iated plates were similarly refr eshed with medium and kept in the dark for the same duration. After a 40- h r ecov ery period, a f reshly pr epar ed resazurin solution (0.2 mg/mL) was added to each well, and the plates were left in the dark for 4 h before analysis on a B i o Te k Cytation 5 Cell Imaging Multimode Reader (Agil ent Technologies). […]

CT26‐luc cells = assay: Annexin V-FITC/propidium iodide (AV/PI) cell viability assay by flow cytometry; assay type: cell-based, mouse; conditions: in the dark, 24 h
Procedure: Following the gold standard assessment method, the Annexin V‐FITC/propidium iodide (AV/PI) dual staining assay was conducted to screen the suitable concentrations of each drug (Figure S25). In addition, to better monitor tumor growth in vivo, luciferase‐labelled tumor cells (CT26‐luc) were used for in vivo experiments by bioluminescence imaging. […] As the concentration of each drug was increased, the proportion of live cells decreased, while the percentage of dying cells (Q3, Annexin V^+/PI^−) and dead cells (Q2, Annexin V^+/PI^+ and Q1, Annexin V^−/PI^+) increased. The concentrations at which approximately 5% of the cells remained alive (IC95) were 600 µM for Cisplatin in the dark, 1.8 µM for Os2, and 6.5 µM for Ce6 upon 740 nm LED light irradiation (60 min, 12.6 J cm^−2). These concentrations were selected for the subsequent in vivo vaccination studies. […]
as §1, with “truction. […]” for “truction.”
as §2

[4] = standard, in acetonitrile; cited from earlier work
[5] = test system: mouse colon adenocarcinoma (CT26) cells; assay: Resazurin cell viability assay, (photo)cytotoxicity, normoxia; assay type: cell-based; conditions: for IC50: Mus musculus, normoxia
Procedure: Given that most ICD studies focus on breast, non‐small cell lung carcinoma, and colon cancer, and since ICD was first discovered in mouse colon cancer cells (CT26), we initially tested our compounds on CT26 cells. Cells were incubated with nine different concentrations (mainly from 0.01 to 100 µM) of the compounds for 4 h in the dark. Then, the diluted solutions containing the compounds were replaced by fresh medium, and the cells were either illuminated or kept in the dark for 1 h more. After 2 days, IC50 values (concentration of the agent inhibiting cell growth by 50%) were determined with the resazurin assay, using chlorin e6 (Ce6) and protoporphyrin IX (PpIX) for comparison (Figure S10). The clinically approved chlorin mixture Radachlorin contains ∼80% Ce6, while 5‐aminolevulinic acid (Ameluz and Levulan) and methyl 5‐aminolevulinate (Metvix and Metvixia) serve as precursors of PpIX. Therefore, Ce6 and PpIX were used for comparison purposes.
(100 U ml−1), streptomycin (100 U ml−1), and 1% L-glutamine. […]
All cells were incubated at 37 °C in a humidified atmosphere with 5 % CO2.
as §3

[6] = Photophysical properties (fluorescence and singlet oxygen quantum yield, lifetime); assay type: physicochemical; conditions: in ethanol
Procedure: System Inc, Phoenixville, PA, USA). The excitation beam is separated by a SPEX dual […]
network monochromator (1200 lines / mm blazed at 330 nm). The fluorescence was […]
measured by the UV-Visible detector via the SPEX dual network emission […]
monochromator (1200 lines / mm blazed at 500 nm). Singlet oxygen production was […]
measured with an infrared detector InGaAs (800 - 1550 nm) via the dual network […]
emission monochromator SPEX (600 lines / mm blazed at 1 µm).
All spectra were measured using 4-sided quartz cells. The absorption values of the […]
references and samples at the excitation wavelength were adjusted to 0.2. All emission […]
spectra were normalized to the same absorbance for the purpose of comparison.
[Ru(bpy)3]2+ in acetonitrile was chosen as standard for both fluorescence and singlet […]
oxygen quantum yield determination. Fluorescence quantum yield of [ Ru(bpy)3]2+ i n […]
acetonitrile is evaluated at 0.077.[5] Singlet oxygen quantum yield of [ Ru(bpy)3]2+ i n […]
acetonitrile is evaluat ed at 0.77.[6]
Time-resolved experiments were performed using for excitation: a pulsed laser diode […]
emitting at 407 nm (LDH-P-C-400M, FWHM < 70 ps, 1 MHz) coupled with a driver […]
PDL 800- D (both PicoQuant GmbH, BERLIN, Germany) and for detection: an […]
avalanch e photodiode SPCM-AQR-15 (EG & G, VAUDREUIL, Can ada) coupled with […]
a 650 nm long- wav e p ass filter as det ection system. The acquisition was p erformed by […]
a PicoHarp 300 module with a 4 channels router PHR-800 (both PicoQuant GmbH, […]
BERLIN, Germany ). Th e fluores cence decays were recorded using the single photon […]
counting method. Data were collected up to 1000 counts accumulated in the maximum […]
channel and analyzed using Time Correlated Single Photon Counting (TCSPC) […]
software Fluofit (PicoQuant GmbH, BERLIN, Germany) based on iterative reconvolution using a Levensberg- M arquandt alg oritm, enabling the obtention of multi-exponential profiles (m ainly one or two exponenti als in our cases ). […]

O=C1[O][Pt]2([NH][C@@H]3CCCC[C@H]3[NH]2)[O]C1=O [Oxaliplatin]
Concentration corresponding to approximately 5% cell survival (MCA205 cells [1]): 1400 µM | Tumor growth (MCA205 cells [2]): partial suppression

Cc1cc(O)c2c(=O)c3c(O)cc(O)c4c5c(O)cc(O)c6c(=O)c7c(O)cc(C)c8c1c2c(c34)c(c78)c65 [Hypericin]
IC50 [3]: 1.66 ± 0.18 µM

N.N.[Cl][Pt][Cl] [Cisplatin]
Concentration at which approximately 5% of the cells remained alive (IC95) (CT26‐luc cells): 600 µM | Concentration corresponding to approximately 5% cell survival (MCA205 cells [1]): 500 µM | Tumor growth (MCA205 cells [2]): Almost no inhibition

[Ru+2].c1ccc(-c2ccccn2)nc1.c1ccc(-c2ccccn2)nc1.c1ccc(-c2ccccn2)nc1 [[Ru(bpy)3]2+]
Fluorescence quantum yield [4]: 0.077 | Singlet oxygen quantum yield [4]: 0.77

C=CC1=C(C)c2cc3[nH]c(cc4nc(cc5[nH]c(cc1n2)c(C)c5CCC(=O)O)C(CCC(=O)O)=C4C)c(C)c3C=C [PpIX, protoporphyrin IX]
PI (phototoxicity index, IC50 dark/IC50 light) ([5]; CT26, 620 nm): >110 | IC50 ([5]; CT26, CT26, dark, read-out: IC50 Dark): > 100 µM | IC50 ([5]; CT26, light or radiation study, 1 h, CT26, 620 nm, 1.88 mW/cm^2, 60 min, read-out: IC50 620 nm (1 h, 6.75 J/cm^2)): 0.91 ± 0.1 µM | IC50 [3]: 4.41 ± 0.09 µM | Fluorescence lifetime [6]: 12.1 ns | Fluorescence quantum yield [6]: 0.05 | Singlet oxygen quantum yield [6]: 0.77
